# Measurements taken from patent US20060153906A1, “Pharmaceutical product for endonasal administration for treating central nervous system disease and disorders” (priority 2002, published 2006).
# Where two headings read alike, the source gives them in different places.
# How the values were obtained:
# white male rats = test: Food motivation in partially food-deprived rats, endonasal administration; assay type: in vivo, rat
# Excerpt: The experiments where carried out with white male rats. The animals of the control group 1 (n=13) received distilled water, the animals of the control group 2 (n=7) received a glucose solution, and the animals of the experimental group (n=9) received the composition H2O2+glucose. The duration of the observation was 17 days. During the first 11 days, the animals where controllably partially deprived of food (20 g dry mixed feed per animal). During the first week of the experiment, the initial motivation level for food was evaluated in the absence of the investigated preparation. The following parameters were investigated:
# Latent period (LP) between the approach to the food and presentation of the food in seconds;
# Time for consuming the food, in seconds (Tfut.);
# Number of interruptions during food uptake (Ubr.)
# After the second week, without changing the feed conditions, the preparation was introduced twice daily in a dose of 20 μl per animal, and all parameters where recorded. After the second week, the animals where fed ad libidum. No changes were made in the administration of the preparation and recordation of all parameters.
# The experiments where conducted as in Example 1.
# rats = tested on: rats
# Excerpt: It should be emphasized that dopamine is not capable of penetrating the blood-brain barrier when administered conventionally.
# white mice = test: Soporific effect (sleep duration) after endonasal administration; assay type: in vivo, mouse; conditions: 60 mg/ml, n = 7
# Excerpt: Investigated was the effect of phenobarbital in an endonasal administration on sexually mature white mice. Both the sedative and the soporific effect of the endonasal administration of phenobarbital without oxygen anion radicals were compared with the administration of the […]
# rear paw of the rats = test: Randall-Selitto pain test, critical pressure (WKD) on the rear paw; assay type: in vivo, rat
# Protocol: The anti-nociceptive and/or analgesic effect of promedol (trimeperidine) was investigated as a result of the endonasal administration of the combination H2O2+promedol. The experiments were conducted with (raceless) sexually mature white male rats. In a pain test, the value of the critical pressure (WKD) on the rear paw of the rats was measured. The controlled pressure on the paw was generated with an analgesimeter from the company Ugo Basile in form of the Randall-Selitto test.
# Comparative results in relation to the composition of the invention include, on one hand, the intraperitoneal administration of promedol without the addition of oxygen anion radicals and, on the other hand, the intraperitoneal administration of promedol with addition of oxygen anion radicals by, on one hand, inhalation with the inhalation device described in DE 41 12 459 A1 and, on the other hand, by separate endonasal administration of a liquid hydrogen peroxide solution with a concentration of 10^−5 mole/l.
# The administration according to the invention consisted of a mixture of xanthine-oxidase/xanthine and promedol in doses of 5, 2, 1, and 0.1 mg/kg bodyweight of the animals.
# [1] = tested on: patients with persistent or severe pain; test: Analgesic effect in patients with persistent or severe pain; assay type: in vivo, human
# Excerpt: The enhancement of the therapeutic efficacy of the analgesic metamizol was investigated. A total of 5 volunteers participated in the observations. […] With all patients, the observations were made after six hours following the last administration of the pain therapy.
# [2] = after administration of preparation, endonasal twice daily 20 μl per animal
# [3] = before administration minus after administration (Table 4)
# [4] = before administration of preparation
# [5] = rats given haloperidol i/p (100 mg/kg), one-time endonasal, dopamine 0.125 mg/kg, L-arginine 10^-5 mole/l, H2O2 10^-6 mole/l
smiles,measurement,setting,value
N[C@@H](CCC(=O)O)C(=O)O [glutamic acid],"LP, latent period between approach to the food and presentation of the food",white male rats; [2],36.3 ± 4.1 s
same,"Tfut., time for consuming the food",white male rats; [2],491.2 ± 9.4 s
same,Change in LP,white male rats; [3],33.3 ± 13.1 s
same,Change in Tfut.,white male rats; [3],-77.2 ± 26.6 s
same,Change in Ubr.,white male rats; [3],0.4 ± 0.6 s
same,"LP, latent period between approach to the food and presentation of the food",white male rats; [4],69.9 ± 15.9 s
same,"Tfut., time for consuming the food",white male rats; [4],414.0 ± 30.6 s
"NCCc1ccc(O)c(O)c1 [Dopamine, dopamine]",Total spontaneous activity (Number of measurable movements),rats; [5],2 ± 1.7 ^##)
"OO [H2O2, hydrogen peroxide]",Total spontaneous activity (Number of measurable movements),rats; [5],3 ± 1.9 ^##)
CCC1(c2ccccc2)C(=O)NC(=O)NC1=O [phenobarbital],Sleep duration,white mice,248.5 ± 22.2 min
"CCC(=O)OC1(c2ccccc2)CC(C)N(C)CC1C (stereo not drawn) [Promedol, trimeperidine]","Lower dose of promedol giving prolonged and enhanced analgesic effect, endonasal form with oxygen anion radicals vs other administration methods",rear paw of the rats; endonasal composition compared to other administration methods,10-50 times
same,Nociception (critical pressure WKD),"rear paw of the rats; group II, 1.0 mg/kg i/p, 30 min after injection",6.2 ± 1.9
same,Nociception (critical pressure WKD),"rear paw of the rats; group II, 1.0 mg/kg i/p, 90 min after injection",5.4 ± 1.4
same,Nociception (critical pressure WKD),"rear paw of the rats; group II, 1.0 mg/kg i/p, 150 min after injection",5.0 ± 1.2
same,Nociception (critical pressure WKD),"rear paw of the rats; group II, 1.0 mg/kg i/p, 210 min after injection",4.8 ± 0.9
same,Initial value of nociception (critical pressure WKD),"rear paw of the rats; group II, 1.0 mg/kg i/p",6.7 ± 0.9
same,Nociception (critical pressure WKD),"rear paw of the rats; group III, 2.0 mg/kg i/p, 30 min after injection",10.1 ± 1.1*)
same,Nociception (critical pressure WKD),"rear paw of the rats; group III, 2.0 mg/kg i/p, 90 min after injection",9.3 ± 1.0*)
same,Nociception (critical pressure WKD),"rear paw of the rats; group III, 2.0 mg/kg i/p, 150 min after injection",8.0 ± 1.1
same,Nociception (critical pressure WKD),"rear paw of the rats; group III, 2.0 mg/kg i/p, 210 min after injection",7.5 ± 0.9
same,Initial value of nociception (critical pressure WKD),"rear paw of the rats; group III, 2.0 mg/kg i/p",7.8 ± 1.6
same,Nociception (critical pressure WKD),"rear paw of the rats; group IV, 5.0 mg/kg i/p, 30 min after injection",11.0 ± 1.0**)
same,Nociception (critical pressure WKD),"rear paw of the rats; group IV, 5.0 mg/kg i/p, 90 min after injection",9.8 ± 1.3**)
same,Nociception (critical pressure WKD),"rear paw of the rats; group IV, 5.0 mg/kg i/p, 150 min after injection",8.3 ± 1.7*)
same,Nociception (critical pressure WKD),"rear paw of the rats; group IV, 5.0 mg/kg i/p, 210 min after injection",6.7 ± 1.0
same,Initial value of nociception (critical pressure WKD),"rear paw of the rats; group IV, 5.0 mg/kg i/p",6.4 ± 0.7
same,Nociception (critical pressure WKD),"rear paw of the rats; group V, 1.0 mg/kg i/p + O2- inhalation, 30 min",8.1 ± 3.6*)
same,Nociception (critical pressure WKD),"rear paw of the rats; group V, 1.0 mg/kg i/p + O2- inhalation, 90 min",8.1 ± 2.3**)
same,Nociception (critical pressure WKD),"rear paw of the rats; group V, 1.0 mg/kg i/p + O2- inhalation, 150 min",9.6 ± 5.0**)
same,Nociception (critical pressure WKD),"rear paw of the rats; group V, 1.0 mg/kg i/p + O2- inhalation, 210 min",5.8 ± 2.3
same,Initial value of nociception (critical pressure WKD),"rear paw of the rats; group V, 1.0 mg/kg i/p + O2- inhalation",6.9 ± 1.6
same,Nociception (critical pressure WKD),"rear paw of the rats; group VI, 1.0 mg/kg i/p + separate endonasal H2O2-administration, 30 min",8.4 ± 2.8*)
same,Nociception (critical pressure WKD),"rear paw of the rats; group VI, 1.0 mg/kg i/p + separate endonasal H2O2-administration, 90 min",8.7 ± 2.0**)
same,Nociception (critical pressure WKD),"rear paw of the rats; group VI, 1.0 mg/kg i/p + separate endonasal H2O2-administration, 150 min",8.6 ± 2.7**)
same,Nociception (critical pressure WKD),"rear paw of the rats; group VI, 1.0 mg/kg i/p + separate endonasal H2O2-administration, 210 min",7.3 ± 2.2
same,Initial value of nociception (critical pressure WKD),"rear paw of the rats; group VI, 1.0 mg/kg i/p + separate endonasal H2O2-administration",7.1 ± 1.8
O=C(CCCN1CCC(O)(c2ccc(Cl)cc2)CC1)c1ccc(F)cc1 [Haloperidol],Total spontaneous activity (Number of measurable movements),"rats; haloperidol i/p alone (100 mg/kg bodyweight), unharmed control 35 ± 8",3 ± 3 ^##)
Cc1c(N(C)CS(=O)(=O)O)c(=O)n(-c2ccccc2)n1C [metamizol],Analgesic efficacy in all patients,"[1]; endonasally, dose of 10 mg, without addition of oxygen anion radicals",not effective
same,Analgesic efficacy in all patients,"[1]; per os, dose of 500 mg",not effective
